Results as given in US9469617B2, “Molecules having certain pesticidal utilities, and intermediates, compositions, and processes related thereto” (priority 2014, dated 2016).
Where two headings read alike, the source gives them in different places.

Experiments:
Format in all cases: in vivo
[1] = tested on: Cabbage Looper (CL) (Trichoplusia ni); assay: Bioassay on Cabbage Looper (CL), 128-well diet tray assay; conditions: 168 h, 50 μg/cm^2 on artificial diet, second instar larvae, five to seven days, 25° C., read-out: CL % Control (or Mortality) rating
Protocol: (§1) Certain molecules disclosed in this document were tested against BAW and CL using procedures described in the following examples. In the reporting of the results, the “BAW & CL Rating Table” was used (See Table Section).
Bioassays on CL were conducted using a 128-well diet tray assay. One to five second instar CL larvae were placed in each well (3 mL) of the diet tray that had been previously filled with 1 mL of artificial diet to which 50 μg/cm^2 of the test compound (dissolved in 50 μL of 90:10 acetone-water mixture) had been applied (to each of eight wells) and then allowed to dry. Trays were covered with a clear self-adhesive cover, and held at 25° C., 14:10 light-dark for five to seven days. Percent mortality was recorded for the larvae in each well; activity in the eight wells was then averaged. The results are indicated in the table entitled “Table ABC: Assay Results” and “Table ABCD: Assay Results” (See Table Section).

[2] = tested on: Beet Armyworm (BAW) (Spodoptera exigua); assay: Bioassay on Beet Armyworm (BAW), 128-well diet tray assay; conditions: 168 h, read-out: BAW % Control (or Mortality) rating
Protocol: as §1
Bioassays on BAW were conducted using a 128-well diet tray assay. one to five second instar BAW larvae were placed in each well (3 mL) of the diet tray that had been previously filled with 1 mL of artificial diet to which 50 μg/cm^2 of the test compound (dissolved in 50 μL of 90:10 acetone-water mixture) had been applied (to each of eight wells) and then allowed to dry. Trays were covered with a clear self-adhesive cover, and held at 25° C., 14:10 light-dark for five to seven days. Percent mortality was recorded for the larvae in each well; activity in the eight wells was then averaged. The results are indicated in the tables entitled “Table ABC: Assay Results” and “Table ABCD: Assay Results” (See Table Section).

[3] = tested on: Yellow Fever Mosquito (YFM) (Aedes aegypti); assay: Bioassay on Yellow Fever Mosquito (YFM) larvae, 96-well plate; conditions: about 1 day-old larvae, master plate 4000 ppm in DMSO diluted, scored on mortality after 3 days
Protocol: Certain molecules disclosed in this document were tested against YFM using procedures described in the following paragraph. In the reporting of the results, the “GPA & YFM Rating Table” was used (See Table Section).
Master plates containing 400 μg of a molecule dissolved in 100 μL of dimethyl sulfoxide (DMSO) (equivalent to a 4000 ppm solution) are used. A master plate of assembled molecules contains 15 μL per well. To this plate, 135 μL of a 90:10 water:acetone mixture is added to each well. A robot (Biomek® NXP Laboratory Automation Workstation) is programmed to dispense 15 μL aspirations from the master plate into an empty 96-well shallow plate (“daughter” plate). There are 6 reps (“daughter” plates) created per master. The created daughter plates are then immediately infested with YFM larvae.
The day before plates are to be treated, mosquito eggs are placed in Millipore water containing liver powder to begin hatching (4 g. into 400 mL). After the daughter plates are created using the robot, they are infested with 220 μL of the liver powder/larval mosquito mixture (about 1 day-old larvae). After plates are infested with mosquito larvae, a non-evaporative lid is used to cover the plate to reduce drying. Plates are held at room temperature for 3 days prior to grading. After 3 days, each well is observed and scored based on mortality.

[4] = Table ABC, 50 μg/cm^2 on artificial diet, second instar larvae, five to seven days, 25° C.

| Structure (SMILES) | mortality at 50 µg/cm2 ([1]; Table ABC) [%] | mortality at 50 µg/cm2 [2, 4] [%] | YFM % Control (or Mortality) rating ([3]; Table ABCD) | also measured |
| --- | --- | --- | --- | --- |
| CCCc1ccc(C)cc1NC(=S)NC(=O)NC1Cc2ccc(-c3ncn(-c4ccc(OC(F)(F)F)cc4)n3)cc2C1 (centres unmarked) [F8, 1-[(5-Methyl-2-propyl-phenyl)carbamothioyl]-3-[5-[1-[4-(trifluoromethoxy)phenyl]-1,2,4-triazol-3-yl]indan-2-yl]urea] | 50 to 100 | 50 to 100 |  |  |
| CC(C)c1ccc(Cl)cc1N1C(=O)CS/C1=N\C(=O)NC1CCc2cc(-c3ncn(-c4ccc(OC(F)(F)F)cc4)n3)ccc2C1 (centres unmarked) [P33, (Z)-1-(3-(5-Chloro-2-isopropylphenyl)-4-oxothiazolidin-2-ylidene)-3-(6-(1-(4-(trifluoromethoxy)phenyl)-1H-1,2,4-triazol-3-yl)-1,2,3,4-tetrahydronaphthalen-2-yl)urea] | 50 to 100 | 50 to 100 |  | YFM % Control (or Mortality) rating ([3]; Table ABC): A (80-100) |
| CC(C)c1cc(F)ccc1N1C(=O)CS/C1=N\C(=O)NC1Cc2ccc(-c3ncn(-c4ccc(OC(F)(F)F)cc4)n3)cc2C1 (centres unmarked) [P10, (Z)-1-(3-(4-Fluoro-2-isopropylphenyl)-4-oxothiazolidin-2-ylidene)-3-(5-(1-(4-(trifluoromethoxy)phenyl)-1H-1,2,4-triazol-3-yl)-2,3-dihydro-1H-inden-2-yl)urea] | 50 to 100 | 50 to 100 |  | YFM % Control (or Mortality) rating ([3]; Table ABC): A (80-100) |
| CC(C)c1ccc(Cl)cc1N1C(=O)CS/C1=N\C(=O)NC1Cc2ccc(-c3ncn(-c4ccc(OC(F)(F)F)cc4)n3)cc2C1 (centres unmarked) [P8, (Z)-1-(3-(5-Chloro-2-isopropylphenyl)-4-oxothiazolidin-2-ylidene)-3-(5-(1-(4-(trifluoromethoxy)phenyl)-1H-1,2,4-triazol-3-yl)-2,3-dihydro-1H-inden-2-yl)urea] | 50 to 100 | 50 to 100 |  | YFM % Control (or Mortality) rating ([3]; Table ABC): A (80-100) |
| CCc1cccc(C)c1N1C(=O)CS/C1=N\C(=O)NC1Cc2ccc(-c3ncn(-c4ccc(OC(F)(F)F)cc4)n3)cc2C1 (centres unmarked) [F10, (Z)-1-(3-(2-Ethyl-6-methylphenyl)-4-oxothiazolidin-2-ylidene)-3-(5-(1-(4-(trifluoromethoxy)phenyl)-1H-1,2,4-triazol-3-yl)-2,3-dihydro-1H-inden-2-yl)urea] | 50 to 100 | 50 to 100 |  | YFM % Control (or Mortality) rating ([3]; Table ABC): A (80-100) |
| Cc1ccc(C(C)C)c(N2C(=O)CS/C2=N\C(=O)Oc2ccc([N+](=O)[O-])cc2)c1 [C30, (Z)-4-nitrophenyl (3-(2-isopropyl-5-methylphenyl)-4-oxothiazolidin-2-ylidene)carbamate] |  |  | D (No activity noticed in this bioassay) | mortality at 50 µg/cm2 [2]: 0% |
| CC(C)c1ccccc1N1CCCS/C1=N\C(=O)NC1Cc2ccc(-c3ncn(-c4ccc(OC(F)(F)F)cc4)n3)cc2C1 (centres unmarked) [P19, (Z)-1-(3-(2-Isopropylphenyl)-1,3-thiazinan-2-ylidene)-3-(5-(1-(4-(trifluoromethoxy)phenyl)-1H-1,2,4-triazol-3-yl)-2,3-dihydro-1H-inden-2-yl)urea] | 50 to 100 | 50 to 100 |  | YFM % Control (or Mortality) rating ([3]; Table ABC): A (80-100) |
| Cc1ccc(C(C)C)c(N2C(=O)CCS/C2=N\C(=O)NC2Cc3ccc(-c4ncn(-c5ccc(OC(F)(F)F)cc5)n4)cc3C2)c1 (centres unmarked) [P17, (Z)-1-(3-(2-Isopropyl-5-methylphenyl)-4-oxo-1,3-thiazinan-2-ylidene)-3-(5-(1-(4-(trifluoromethoxy)phenyl)-1H-1,2,4-triazol-3-yl)-2,3-dihydro-1H-inden-2-yl)urea] | 50 to 100 | 50 to 100 |  |  |
| CCc1ccc(C)cc1NC(=S)NC(=O)c1ccccc1 [C17, N-((2-Ethyl-5-methylphenyl)carbamothioyl)benzamide] |  |  | D (No activity noticed in this bioassay) |  |
| CCc1ccc(C)cc1NC(=S)NC(=O)NC1Cc2ccc(-c3ncn(-c4ccc(OC(F)(F)F)cc4)n3)cc2C1 (centres unmarked) [F5, 1-[(2-Ethyl-5-methyl-phenyl)carbamothioyl]-3-[5-[1-[4-(trifluoromethoxy)phenyl]-1,2,4-triazol-3-yl]indan-2-yl]urea] | 50 to 100 | 50 to 100 |  |  |
| NC1Cc2ccc(-c3ncn(-c4ccc(OC(F)(F)F)cc4)n3)cc2C1.O=C(O)C(F)(F)F (centres unmarked) [C4, 5-(1-(4-(trifluoromethoxy)phenyl)-1H-1,2,4-triazol-3-yl)-2,3-dihydro-1H-inden-2-amine 2,2,2-trifluoroacetate] |  |  | D (No activity noticed in this bioassay) |  |
| CCc1cccc(C)c1NC(=S)NC(=O)NC1Cc2ccc(-c3ncn(-c4ccc(OC(F)(F)F)cc4)n3)cc2C1 (centres unmarked) [F6, 1-[(2-Ethyl-6-methyl-phenyl)carbamothioyl]-3-[5-[1-[4-(trifluoromethoxy)phenyl]-1,2,4-triazol-3-yl]indan-2-yl]urea] | 50 to 100 | 50 to 100 |  |  |
| CCc1ccccc1NC(=S)NC(=O)NC1Cc2ccc(-c3ncn(-c4ccc(OC(F)(F)F)cc4)n3)cc2C1 (centres unmarked) [F7, 1-[(2-Ethylphenyl)carbamothioyl]-3-[5-[1-[4-(trifluoromethoxy)phenyl]-1,2,4-triazol-3-yl]indan-2-yl]urea] | 50 to 100 | 50 to 100 |  |  |
| COc1ccc(C(C)C)c(NC(=S)NC(=O)c2ccccc2)c1 [C18, N-((2-Isopropyl-5-methoxyphenyl)carbamothioyl)benzamide] |  |  | D (No activity noticed in this bioassay) |  |
| CC(C)(C)OC(=O)NC1Cc2ccc(-c3ncn(-c4ccc(OC(F)(F)C(F)(F)F)cc4)n3)cc2C1 (centres unmarked) [C2, tert-butyl (5-(1-(4-(perfluoroethoxy)phenyl)-1H-1,2,4-triazol-3-yl)-2,3-dihydro-1H-inden-2-yl)carbamate] |  |  |  | mortality at 50 µg/cm2 ([1]; Table ABCD): 50 to 100%; mortality at 50 µg/cm2 ([2]; Table ABCD, 50 μg/cm^2 on artificial diet, second instar larvae, five to seven days, 25° C.): 50 to 100% |
| CC(C)c1ccccc1NC(=S)NC(=O)NC1Cc2ccc(-c3ncn(-c4ccc(OC(F)(F)F)cc4)n3)cc2C1 (centres unmarked) [F14, 1-[(2-Isopropylphenyl)carbamothioyl]-3-[5-[1-[4-(trifluoromethoxy)phenyl]-1,2,4-triazol-3-yl]indan-2-yl]urea] | 50 to 100 | 50 to 100 |  |  |
| CCCc1ccc(C)cc1NC(N)=S [C20, 1-(5-methyl-2-propylphenyl)thiourea] |  |  | D (No activity noticed in this bioassay) |  |
| CCc1ccc(C)cc1NC(N)=S [C22, 1-(2-Ethyl-5-methylphenyl)thiourea] |  |  | D (No activity noticed in this bioassay) |  |
| CC(C)c1ccccc1N1C(=O)CCS/C1=N\C(=O)NC1Cc2ccc(-c3ncn(-c4ccc(OC(F)(F)F)cc4)n3)cc2C1 (centres unmarked) [FA4, (Z)-1-(3-(2-isopropylphenyl)-4-oxo-1,3-thiazinan-2-ylidene)-3-(5-(1-(4-(trifluoromethoxy)phenyl)-1H-1,2,4-triazol-3-yl)-2,3-dihydro-1H-inden-2-yl)urea] | 50 to 100 | 50 to 100 |  |  |
| C=C(C)c1ccc(Cl)cc1[N+](=O)[O-] [C8, 4-Chloro-2-nitro-1-(prop-1-en-2-yl)benzene] |  |  | D (No activity noticed in this bioassay) |  |
| Cc1ccc(C(C)C)c(N2/C(=N/C(=O)NC3Cc4ccc(-c5ncn(-c6ccc(OC(F)(F)F)cc6)n5)cc4C3)SCCC2C)c1 (centres unmarked) [P16, (Z)-1-(3-(2-Isopropyl-5-methylphenyl)-4-methyl-1,3-thiazinan-2-ylidene)-3-(5-(1-(4-(trifluoromethoxy)phenyl)-1H-1,2,4-triazol-3-yl)-2,3-dihydro-1H-inden-2-yl)urea] | 50 to 100 | 50 to 100 |  |  |
